# Test results published in patent publication US20230218654A1, “COMPOSITIONS AND METHODS FOR TREATING HYPERGLYCEMIA IN TYPE-2 DIABETES” (The Board of Regents of the university of Oklahoma, priority 2020, published 2023).
# Entries after “also recorded” stand apart in the source; their conditions may differ.
# What was measured:
# high fat diet-fed mice = settings: i.p. injection; cited from earlier work
# [1] = tested on: hepatic CRL (cullin) neddylation and hepatic insulin signaling; test: Western blot of liver lysates after acute MLN4924 injection; type: in vivo; settings: chow-fed mice, 6 h fast; for hepatic CRL (cullin) neddylation: 60 mg/kg at 5 pm day 1 and 9 am day 2 (IP or SQ)
# Procedure: A. Western blot of liver lysates. Chow-fed male C56BL/6J mice were injected with 60 mg/kg MLN4924 or Vehicle (10% 2HO-β-cyclodextrin) at 5 pm on day 1 and 9 am on day 2, and sacrificed at 3 pm after 6 h fast. Upper arrow: Neddylated Cul3; Lower arrow: de-neddylated Cul3. Veh=vehicle; IP=intraperitoneal; SQ=subcutaneous.
# FIG. 12A is a Western blot showing that MLN4924 inhibits liver cullin neddylation and increases IRS protein abundance and insulin signaling activation. Chow-fed male C56BL/6J mice were subcutaneously (SQ) injected 60 mg/kg MLN4924 or Veh (10 % 2HO-β-cyclodextrin) at 5 pm on day 1 and 9 am on day 2. Mice were fasted from 9 am to 3 pm on day 2 and sacrificed. Upper and lower arrows indicate neddylated cullin1 and cullin3 bands, respectively.
# MLN4924 and TAS4464 were purchased from MedChemExpress (MCE, Monmouth Junction, NJ). For cell treatment, MLN4924 and TAS4464 were dissolved in DMSO. Cells were serum starved overnight and then treated with MLN4924, TAS4464 and/or insulin as indicated. For injection in mice, MLN4924 and TAS4464 were first dissolved in DMSO, which was further suspended in 10% (2-hydroxypropyl)-β-cyclodextrin (Sigma, St. Louis, MO). The final solution contains 1% DMSO. The subcutaneous injection volume is 200 µl/mouse.
# Protein lysates were prepared in RIPA buffer containing 1% SDS and protease inhibitors on ice for 1 h followed by brief sonication. After centrifugation, supernatant was used for SDS-PAGE and immunoblotting.
# WT male C57BL/6J mice were purchased from the Jackson Lab (Bar Harbor, ME). Western diet (TD. 88137, Envigo Inc. Indianapolis, IN) contains 42% fat calories and 0.2% cholesterol. Mice were housed in micro-isolator cages with corn cob bedding under 7 am - 7 pm light cycle and 7 pm -7 am dark cycle. MLN4924 was prepared in 10% 2-hydroxypropyl-b-cyclodextrin to a final concentration of 3 mg/ml. All mice were fasted for 6 h from 9 am to 3 pm before euthanasia. All animals received humane care according to the criteria outlined in the “Guide for the Care and Use of Laboratory Animals.” All animal protocols were approved by the Institutional Animal Care and Use Committee at the University of Kansas Medical Center and the University of Oklahoma Health Sciences Center.
# (§1) Human normal livers (less than 5% steatosis) and histologically confirmed NASH livers were obtained from either the University of Kansas Liver Center or the Liver Tissue Cell Distribution System (LTCDS) at the University of Minnesota. Human and mouse tissue samples were homogenized in 1XRIPA buffer containing 1% SDS and protease inhibitors. After incubation on ice for 1 hour, the samples were centrifugation and supernatant was transferred to a new tube. The protein lysate was mixed with equal volume of 2X laemmli buffer and incubated at 95° C. for 5 minutes and used for SDS-PAGE and immunoblotting. ImageJ software (NIH) was used to determine band intensity.
# To further explore the hepatic insulin sensitizing effect of neddylation inhibition in vivo, we administered MLN4924 to chow-fed mice twice via subcutaneous (SQ) injection (5 pm on day 1 and 9 am on day 2) and studied the acute effect of MLN4924. The dose of 60 mg/kg is in line with published literature. […] In addition to liver, skeletal muscle is another organ that quantitatively contribute to plasma glucose homeostasis.
# male C57BL/6J mice = test: Glucose tolerance test (GTT); type: in vivo; settings: 60 mg/kg SQ twice; for glucose tolerance in GTT: 6 h fast
# Procedure: On the day of testing, mice were fasted for 6 h (from 9 am to 3 pm). Mice were then given 2 g/kg D-glucose via IP injection. Blood glucose was measured with an UltraTouch glucometer in time course over a 120-minute period.
# Mice were treated with 2 doses of MLN4924 as described. After the second injection at 9 am, mice were fasted for 6 h from 9 am to 3 pm. Mice were injected intraperitoneally […] for PTT, and 0.5 U/kg insulin for ITT. Blood glucose was measured with a OneTouch Ultra glucose meter.
# [2] = tested on: male C57BL/6J mice fed Chow or Western diet; test: MLN4924 intervention for 9 weeks in 16-week WD-fed mice (Experimental II); type: in vivo
# Procedure: Chronic MLN4924 treatment attenuates hepatic steatosis in Western diet-fed mice. Male C57BL/6J mice were fed Chow (C) or Western diet (WD) for 16 weeks. MLN4924 treatment (60 mg/kg, SQ, every other day) was initiated after mice were fed WD for 7 weeks as indicated. Control mice were injected with vehicle. After 16 weeks of feeding, mice were fasted from 9 am to 3 pm and euthanized. Scale bar = 125 µm. […]
# WT male C57BL/6J mice were purchased from the Jackson Lab (Bar Harbor, ME). Western diet (TD. 88137, Envigo Inc. Indianapolis, IN) contains 42% fat calories and 0.2% cholesterol. Mice were housed in micro-isolator cages with corn cob bedding under 7 am - 7 pm light cycle and 7 pm -7 am dark cycle. MLN4924 was prepared in 10% 2-hydroxypropyl-b-cyclodextrin to a final concentration of 3 mg/ml. All mice were fasted for 6 h from 9 am to 3 pm before euthanasia. All animals received humane care according to the criteria outlined in the “Guide for the Care and Use of Laboratory Animals.” All animal protocols were approved by the Institutional Animal Care and Use Committee at the University of Kansas Medical Center and the University of Oklahoma Health Sciences Center. […]
# as §1
# Total liver RNA was purified with Trizol (Sigma-Aldrich, St. Louis, MO). Total liver RNA was used in reverse transcription with Oligo dT primer and SuperScript III reverse transcriptase (Thermo Fisher Scientific, Grand Island, NY). Real-time PCR was performed on a Bio-Rad CFX384 Real-time PCR system with iQ SYBR Green Supermix (Bio-rad, Hercules, CA). The comparative CT (Ct) method was used to calculate the relative mRNA expression. The relative mRNA expression was expressed as 2 ^-ΔΔCt with the control group arbitrarily set as “1”. […]
# [3] = chronic MLN4924, 60 mg/kg SQ once every 2 days
smiles,measurement,setting,value
"NS(=O)(=O)OC[C@@H]1C[C@@H](n2ccc3c(N[C@H]4CCc5ccccc54)ncnc32)C[C@@H]1O [MLN4924, ((1S,2S,4R)-4-(4-((1S)-2,3-dihydro-1H-inden-1-ylamino)-7H-pyrrolo[2,3-d]pyrimidin-7-yl)-2-hydroxycyclopentyl) methyl sulfamate]",obesity,high fat diet-fed mice,significantly reduces obesity
same,hepatic CRL (cullin) neddylation,[1]; 60 mg/kg,effectively reduced hepatic CRL neddylation
same,hepatic CRL (cullin) neddylation,"[1]; listed as MLN4924, 60 mg/kg",effectively reduced hepatic cullin neddylation
same,hepatic Y612 phosphorylated IRS1,[1]; 60 mg/kg twice,increased Y612 phosphorylated IRS1
same,hepatic IRS1 and IRS2 protein,"[1]; 60 mg/kg twice, 60 mg/kg",rapidly increased hepatic IRS1 and IRS2; also recorded: increased hepatic IRS proteins
same,hepatic phosphorylated AKT,"[1]; 60 mg/kg twice, 60 mg/kg",higher phosphorylated AKT; also recorded: increased hepatic IRS proteins and AKT phosphorylation
same,peak blood glucose at 30 minutes post glucose challenge,male C57BL/6J mice; vs vehicle,significantly lower
same,glucose tolerance in GTT,male C57BL/6J mice; 3-week WD-fed mice,significantly improved glucose tolerance
same,basal glucose levels after 6 h fasting,male C57BL/6J mice; chow condition,did not significantly decrease basal glucose levels
same,glucose tolerance in GTT,"male C57BL/6J mice; chow-fed mice, 60 mg/kg",significantly improved glucose tolerance; also recorded: improved overall glucose tolerance
same,ALT,[2]; WD-fed mice,significantly reduced ALT
same,hepatic fat accumulation,[2]; WD-fed mice,significant reduction of hepatic fat accumulation
same,plasma insulin levels,[2]; WD-fed mice,not reduced
same,blood glucose,"[2]; WD-fed mice, intervention for 9 weeks",completely normalized blood glucose
same,liver histology,[2]; chow-fed MLN4924-treated mice,appeared normal
same,plasma insulin,[2]; chow-fed mice,did not affect plasma insulin
same,alanine aminotransferase (ALT) elevation,"[2]; chow-fed mice, 9 weeks",did not cause alanine aminotransferase (ALT) elevation
same,hypoglycemia,"[2]; chow-fed mice, intervention for 9 weeks",without causing undesirable hypoglycemia
same,hepatic glucose 6-phosphatase (G6Pase) gene,[2]; chronic MLN4924,decreased hepatic gluconeogenic gene glucose 6-phosphatase (G6Pase)
same,liver pyruvate kinase (L-PK) gene,[2]; chronic MLN4924,downregulation of liver pyruvate kinase (L-PK)
same,hepatic IRS protein,[2]; [3],increased IRS protein
same,hepatic cullin neddylation,[2]; [3],decreased hepatic cullin neddylation
same,hepatic downstream AKT activation,[2]; [3],increased IRS protein and downstream AKT activation
same,tolerability / hepatotoxicity,"[2]; chronic MLN4924, 9 weeks",well tolerated and did not cause hepatotoxicity
